Paper PMC7462985, “Inhibitors of BRAF dimers using an allosteric site” (Nature Communications, 2020)

Key:
[1] = test system: A375 cells (BRAF^V600E monomers); experiment: p-ERK inhibition by western blot; details: A375 cells
[2] = test system: RAS^MUT/BRAF^WT melanoma or lung cancer cells (SKMEL-30, SKMEL-2, CALU6); experiment: ERK signaling inhibition by western blot; details: RAS^MUT/BRAF^WT cells, 1 h
BRAF^V600E = BRAF^V600E (Homo sapiens, UniProt P15056, V600E); experiment: SelectScreen Z'-LYTE kinase activity assay; format: biochemical; set-up: purchased Invitrogen (SelectScreen service); details: 100 μM ATP
Protocol: (§1) BRAF kinase assays were performed using the Z’-LYTE™ enzymatic assay (Invitrogen, USA). […] Titrations were performed using a 1:3 dilution. Assays were performed using SelectScreen (Invitrogen).

BRAF^WT = molecular target: T1, BRAF^WT (Homo sapiens, UniProt P15056); experiment: SelectScreen Z'-LYTE kinase activity assay; format: biochemical; details: 100 μM ATP
T1 construct: purchased Invitrogen (SelectScreen service)
T1 sequence (P15056 whole entry): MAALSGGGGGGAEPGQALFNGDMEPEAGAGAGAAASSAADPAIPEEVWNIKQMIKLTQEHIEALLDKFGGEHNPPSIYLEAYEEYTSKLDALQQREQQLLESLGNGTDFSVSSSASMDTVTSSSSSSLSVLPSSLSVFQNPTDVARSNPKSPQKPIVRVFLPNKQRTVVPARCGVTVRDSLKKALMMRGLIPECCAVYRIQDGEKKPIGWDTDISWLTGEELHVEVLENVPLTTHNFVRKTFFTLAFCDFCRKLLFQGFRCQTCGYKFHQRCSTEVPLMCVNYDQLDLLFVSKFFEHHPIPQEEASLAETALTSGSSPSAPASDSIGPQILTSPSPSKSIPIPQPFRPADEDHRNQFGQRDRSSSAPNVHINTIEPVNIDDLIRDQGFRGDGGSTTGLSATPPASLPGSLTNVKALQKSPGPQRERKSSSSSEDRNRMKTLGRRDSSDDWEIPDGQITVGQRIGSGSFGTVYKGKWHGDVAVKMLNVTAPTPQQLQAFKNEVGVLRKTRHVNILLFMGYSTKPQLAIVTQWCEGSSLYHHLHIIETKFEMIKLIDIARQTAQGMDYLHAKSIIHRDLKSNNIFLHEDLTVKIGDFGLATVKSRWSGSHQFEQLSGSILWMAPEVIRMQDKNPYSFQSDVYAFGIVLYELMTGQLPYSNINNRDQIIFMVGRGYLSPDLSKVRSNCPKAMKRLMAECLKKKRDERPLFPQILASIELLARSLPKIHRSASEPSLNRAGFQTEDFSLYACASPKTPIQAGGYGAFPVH
Protocol: as §1

Chain of BRAF^V600E (P15056 whole entry V600E): as the sequence (P15056 whole entry) above, with V600E counted along it

**Q.** Which results are given for `CCCS(=O)(=O)Nc1ccc(F)c(C(=O)c2c[nH]c3ncc(-c4ccc(Cl)cc4)cc23)c1F` [Vemurafenib]?
**A.** concentration that robustly inhibits ERK signaling ([1]; 3 hrs, immunoblot): 0.3 µM; effect on p-ERK levels (in words) [2]: enhances p-ERK levels

**Q.** Which results are given for `CCc1cc(N2CCC(NCc3ccc(NC(=O)c4ccc(C)c(C#Cc5cnc6cccnn56)c4)cc3C(F)(F)F)CC2)ncn1` [PHI2]?
**A.** inhibitory activity for BRAF^V600E monomers in comparison to PHI1 (in words) ([1]; 1 h): increased; IC50 (BRAF^V600E): 35 ± 2.8 nM; IC50 (BRAF^WT): 598 ± 113 nM
